From ChEMBL document CHEMBL5143758, “2-Amino-1,3,4-thiadiazoles as Glutaminyl Cyclases Inhibitors Increase Phagocytosis through Modification of CD47-SIRPα Checkpoint” (ACS Med Chem Lett, 2022)
pIC50: −log10 of the molar value.

molecular target: Glutaminyl-peptide cyclotransferase-like protein (Homo sapiens, UniProt Q9NXS2); assay: Inhibition of recombinant human isoQC using H-Gln-AMC hydrobromide as fluorogenic substrate incubated for 6 hrs by fluorometric microplate reader analysis
Sequence (Q9NXS2 whole entry): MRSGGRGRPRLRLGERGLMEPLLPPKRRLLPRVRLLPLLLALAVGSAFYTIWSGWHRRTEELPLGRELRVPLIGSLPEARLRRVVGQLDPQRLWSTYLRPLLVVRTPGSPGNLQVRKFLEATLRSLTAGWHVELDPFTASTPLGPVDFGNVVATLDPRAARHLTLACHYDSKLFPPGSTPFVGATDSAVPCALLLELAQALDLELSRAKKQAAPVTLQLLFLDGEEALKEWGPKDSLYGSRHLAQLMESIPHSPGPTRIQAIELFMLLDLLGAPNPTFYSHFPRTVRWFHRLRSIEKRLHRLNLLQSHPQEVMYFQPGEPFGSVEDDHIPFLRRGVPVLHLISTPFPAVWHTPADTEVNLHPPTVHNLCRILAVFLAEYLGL

pIC50	Structure (SMILES)
6.45	COc1ccc(NC(=S)NCCCn2ccnc2)cc1OC

molecular target: Glutaminyl-peptide cyclotransferase (Homo sapiens, UniProt Q16769)
Sequence (Q16769 whole entry): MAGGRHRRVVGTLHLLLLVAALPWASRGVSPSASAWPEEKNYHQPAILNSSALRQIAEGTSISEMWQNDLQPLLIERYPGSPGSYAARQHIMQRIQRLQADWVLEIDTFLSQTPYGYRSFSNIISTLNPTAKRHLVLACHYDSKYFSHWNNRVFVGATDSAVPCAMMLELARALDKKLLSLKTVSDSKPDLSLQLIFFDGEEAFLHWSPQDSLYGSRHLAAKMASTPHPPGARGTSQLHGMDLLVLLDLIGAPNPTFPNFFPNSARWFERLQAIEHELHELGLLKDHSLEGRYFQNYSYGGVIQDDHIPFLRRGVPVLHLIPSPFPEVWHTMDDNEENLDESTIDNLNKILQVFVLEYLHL
Description: Inhibition of recombinant human QC using H-Gln-AMC hydrobromide as fluorogenic substrate incubated for 6 hrs by fluorometric microplate reader analysis

pIC50	Structure (SMILES)
3.84	Cc1cncn1-c1ccccc1
3.11	Cn1cccc(O)c1=O
3.63	O=c1ccocc1O
3.41	O=C1CNC(=S)N1 [THIOHYDANTOIN]

The next lines start with the compound.

Structure (SMILES)	pIC50
Cc1c[nH]cn1	3.96
O=C(O)c1ccc2cccc(O)c2n1	3.69
Sc1nc2ccccc2[nH]1 [2-MERCAPTOBENZIMIDAZOLE]	3.26
Oc1ccccc1O [CATECHOL]	5.30
Oc1cccc2cccnc12 [OXYQUINOLINE]	3.68
